Source: patent publication US20240156856A1, “NOVEL APPLICATIONS OF HYALURONIC ACID FOR TREATMENT OF PAIN AND PRURITIS” (THE REGENTS OF THE UNIVERSITY OF CALIFORNIA, priority 2022, published 2024)

Test system: rats with paclitaxel CIPN
Test: Paclitaxel CIPN mechanical hyperalgesia, Randall-Selitto paw-withdrawal test
Type: in vivo, Sprague-Dawley rats
Description: Experimental animals. Experiments were performed on 220-400 g male and female Sprague-Dawley rats, purchased from Charles River Laboratories (Hollister, CA, USA), housed three per cage, under a 12-hour light/dark cycle, in a temperature- and humidity-controlled animal care facility at the University of California, San Francisco. Food and water were available ad libitum. Experimental protocols were approved by the University of California, San Francisco, Institutional Animal Care and Use Committee, and adhered to the National Institutes of Health Guidelines for the care and use of laboratory animals.
Measurement of nociceptive threshold. Mechanical nociceptive threshold was quantified with an Ugo Basile Analgesymeter (Stoelting, Wood Dale, IL, USA), used to perform the Randall-Selitto paw-withdrawal test [61; 68; 69]. This device uses a dome-shaped plinth to apply a mechanical force that increases linearly with time, to the dorsum of a rat's hindpaw. To perform the Randall-Selitto paw-withdrawal test, rats were placed in cylindrical acrylic restrainers with lateral ports that allow access to the hind paw, as described previously. Rats were acclimatized to the testing procedure by placing them in restrainers for 1 h per day for 3 consecutive daily training sessions, and for 30-40 min prior to experiments.
Mechanical nociceptive threshold is defined as the force, in grams, applied by the plinth to the dorsum of the hindpaw, at which a rat withdraws its paw from the stimulus. Baseline paw-withdrawal threshold is defined as the mean of three readings taken before administration of test agents. To minimize experimenter bias, individuals conducting experiments were blinded to experimental treatments. Each experiment was performed on a different group of rats. Data are presented as mechanical nociceptive threshold, in grams (g) or percentage change from preintervention baseline.
Hyaluronans were initially dissolved in distilled water (dH2O) at a concentration of 10 μg/μL, stock solution, and further diluted by adding DMSO with three final concentrations of hyaluronan (1, 2 and 4 μg/μL), protamine or terpene; unless otherwise stated, the final concentration of DMSO was 75%. The DMSO vehicle was 75% DMSO in 0.9% saline. In one experiment, 500-1200 kDa hyaluronan was administered topically in 0.9% saline vehicle. PGE2 was dissolved in 0.9% saline at the same final concentration that we previously injected intradermally (100 ng/5 μL). In the experiments in which hyaluronan was dissolved in protamine or terpene vehicle, protamine was first dissolved in distilled water (dH2O) to a concentration of 5 μg/μ1, stock solution of hyaluronan was combined with protamine at the final concentration of 2 μg/μ1, in a volume of 3 μl, for topical administration; terpene was first dissolved in dH2O at the concentration of 2 μg/μ1, then hyaluronan was dissolved in stock solution of terpene to its final concentration of 2 μg/μ1, in a volume of 3 μl, for topical administration).
Paclitaxel CIPN: Paclitaxel was dissolved in Cremophor EL and ethanol (1:1) [1; 6; 20; 22] and diluted in 0.9% saline to a concentration of 1 mg/mL, just prior to its intraperitoneal (i.p.) administration (1 mg/kg, i.p.) [19; 42] to rats briefly anesthetized with isoflurane (2.5% in O2), every other day for a total of 4 doses.
Hyaluronans (30 μL) were administered topically on the dorsum of the hind paw, dispensed from a P200 pipette (Gilson, Middleton, WI, USA) with a plastic pipette tip and then spread manually.
Antisense oligodeoxynucleotides (ODNs).
Before use, ODNs were reconstituted in nuclease-free 0.9% saline and then administered by the intrathecal (i.t.) route. As described previously, rats were anesthetized with isoflurane (2.5% in O2) and 120 μg of ODN, in a volume of 20 μL, injected i.t., using a syringe ([…]) attached to a 29-gauge hypodermic needle that was inserted into the subarachnoid space, between the L4 and L5 vertebrae. […]

Substance: hyaluronan [500-1200 kDa hyaluronan]
- hyperalgesia induced by paclitaxel (female rats given i.t. GPR30 antisense or mismatch ODN, topical 2 μg/μL, 30 μL): only attenuated the hyperalgesia induced by paclitaxel in the GPR30 antisense-treated group
- hyperalgesia induced by paclitaxel (gonad intact female rats, topical 2 μg/μL, 30 μL in DMSO vehicle): did not attenuate hyperalgesia
- hyperalgesia induced by paclitaxel (male rats given i.t. CD44 antisense or mismatch ODN, topical 2 μg/μL, 30 μL in DMSO): attenuated the hyperalgesia induced by paclitaxel only in the CD44 mismatch-treated group
- time at which anti-hyperalgesia was still present after the second administration (male rats, reapplied at the same site after first effect wore off, DMSO vehicle): ≥ 180 min
- hyperalgesia induced by paclitaxel (male rats, topical 2 μg/μL, 30 μL in DMSO, day 7): attenuated the hyperalgesia induced by paclitaxel
- time by which anti-hyperalgesia dissipated, first administration (male rats, topical 2 μg/μL, 30 μL in DMSO, repeated-administration experiment): ≤ 120 min
- anti-hyperalgesia in paclitaxel-induced CIPN (ovariectomized female rats, topical 2 μg/μL, 30 μL in DMSO): induced anti-hyperalgesia of similar magnitude to that observed in gonad intact male rats
